Entries after “also recorded” stand apart in the source; their conditions may differ.
Columns and labels:
[1] = Phase 1 multiple ascending dose (MAD) pharmacokinetics; assay type: in vivo, human
Description: A two-part randomized, double-blind, placebo-controlled Phase 1 trial was conducted to assess the safety, tolerability, PK and PD of SRP-001 ascending doses (Quotient Sciences, Miami, FL USA). The study was conducted in accordance with the International Council for Harmonisation of Technical Requirements for Pharmaceuticals for Human Use (ICH), Guideline for GCP: Consolidated Guidance (E6), and applicable regulatory requirements(s) including clinical research guidelines established by the Basic Principles defined in the U.S. 21 CFR Parts 50, 56, and 312 and the principles enunciated in the Declaration of Helsinki (revised version Fortaleza 2013). The clinical protocol and informed consent form were reviewed and approved by an Institutional Review Board (IRB; Advarra IRB, 6100 Merriweather Drive, Suite 600, Columbia, MD 21044; Quotient Protocol No. SRP-101 and Quotient Sciences Study No. QSC205130; Quotient Sciences Miami, 3898 NW 7th Street, Miami, FL 33126.). The study comprises a SAD (Part 1) assessment that includes a food effect assessment that contributes data to inform a subsequent MAD (Part 2) dose-ranging study. Safety measurements were collected throughout the study for all subjects. Blood samples were collected to determine the PK parameters of SRP-001. ClinicalTrials.gov identifier: NCT05484414

[2] = target: T1, hERG current (Homo sapiens, UniProt Q12809); test: In vitro hERG cardiotoxicity assay in human embryonic kidney cells; assay type: cell-based
T1 construct: expressed in transfected cells; host or cells: human embryonic kidney cells
Description: The effects of SRP-001 on hERG current amplitude at physiologic temperatures were evaluated over a nominal concentration range of 0.1 μM to 100M. A vehicle group (10% DMSO) was included in the study for comparison, and dofetilide (10 nM) was used as a reference substance. The vehicle and positive controls indicated appropriate sensitivity of the test systems. […] Next, the potential acute effects of oral SRP-001 on cardiovascular function in conscious telemetered beagle dogs was done using a Latin Square design; 4 male naïve beagle dogs each received vehicle (10% DMSO: 10% labrasol: 80% PEG400) and three doses (30, 90, and 150 mg/kg) of SRP-001 nanosuspension by oral gavage. […] A single dose was administered on the day of dosing, and a washout period of seven days was allowed between doses. One-min means of hemodynamic parameters, as well as ECG parameters and body temperature, were measured for a period of at least 24 h. One-min tracings of the ECGs were obtained at 15 min prior to dosing and at 30 min, 1, 2, 4, 8, 12, and 24 h post-dose. Qualitative evaluation of the ECGs was done by a board-certified veterinary cardiologist.

[3] = test system: Chinese Hamster Ovary Cells; test: In vitro mammalian chromosomal aberration assay; assay type: cell-based; conditions: for doses with cytotoxicity: non-activated 20-h exposure
Description: To further evaluate the potential genotoxicity of SRP-001 and determine the validity of the in vitro findings, a second in vivo assay, a GLP-compliant Comet assay, was conducted in accordance with ICH S2(R1) Guidance on Genotoxicity Testing and Data Interpretation for Pharmaceuticals Intended for Human Use. […] SRP-001 was tested to evaluate its mutagenic potential by measuring its ability to induce reverse mutations at selected loci of several strains of Salmonella typhimurium (S. typhimurium) and at the tryptophan locus of Escherichia coli (E. coli) strain WP2 uvrA in the presence and absence of an exogenous metabolic activation system (Bioreliance, Rockville, MD USA). Dimethyl sulfoxide (10% DMSO) was used as the vehicle. The dose levels tested in the preliminary toxicity assay were 6.67, 10.0, 33.3, 66.7, 100, 333, 667, 1000, 3333, and 5000 μg per plate. No precipitate was observed. […] The dose levels tested in the mutagenicity assay were 100, 333, 667, 1000, 3333, and 5000 μg per plate. […] In the preliminary toxicity assay, the doses tested ranged from 0.0405 to 405 μg/mL (1 mM), which was the limit dose for this assay (Bioreliance, Rockville, MD USA).
The doses selected for evaluation of chromosome aberrations were 150, 300, and 405 μg/mL for the non-activated and S9-activated 4-h exposure groups; and 10, 40, and 80 μg/mL for the non-activated 20-h exposure group. […] The induction of structural aberrations was outside the 95% control limit of the historical negative control data of 0.00% to 2.79%. […] However, the induction of structural aberrations was within the 95% control limit of the historical negative control data of 0.00% to 4.28%. […] The induction of structural aberrations was outside the 95% control limit of the historical negative control data of 0.00% to 2.68%.

[4] = test system: dog; conditions: in vivo
Description: To determine the appropriate doses, maximum tolerated dose studies (non-GLP) were conducted prior to the definitive GLP systemic toxicity studies. SRP-001 was evaluated by a full battery of GLP-compliant toxicity studies. Systemic toxicity was evaluated in Sprague-Dawley rats and Beagle dogs by oral administration over 28 days (FIG. 24 and FIGS. 27-28, Table 2). […]

[5] = test system: male Beagle dogs; conditions: dog, in vivo
Description: 6) A Two-day Oral Dose Toxicity and Pharmacokinetic Study of SRP-001 in Beagle Dogs Non-GLP) SRP-001 was supplied by Olon Ricerca Bioscience as an off-white powder and then prepared as dosing suspensions for oral administration via gavage (Calvert Labs/Altasciences, Scott Township, PA USA). Six experimentally non-naïve male Beagle dogs (3/dose), at least 7 months old and weighing 7.2 to 10.2 kg prior to treatment initiation, were administered 100 or 900 mg/kg/d SRP-001. Animals were dosed three times daily (3-5 h between doses) for 2 d. Mortality/morbidity was performed twice daily. On the day of dosing, animals were observed prior to each dose administration and approximately 1-3 h after each dose. Animals were also observed once on day 3. Body weights were recorded for all animals prior to the first dose administration on days 1 and 3, and food consumption was recorded daily. Blood for bioanalytical evaluation was collected at selected timepoints on day 1. Following the completion of the study, surviving animals were not euthanized and were returned to the Calvert colony.

T1 sequence (Q12809 whole entry): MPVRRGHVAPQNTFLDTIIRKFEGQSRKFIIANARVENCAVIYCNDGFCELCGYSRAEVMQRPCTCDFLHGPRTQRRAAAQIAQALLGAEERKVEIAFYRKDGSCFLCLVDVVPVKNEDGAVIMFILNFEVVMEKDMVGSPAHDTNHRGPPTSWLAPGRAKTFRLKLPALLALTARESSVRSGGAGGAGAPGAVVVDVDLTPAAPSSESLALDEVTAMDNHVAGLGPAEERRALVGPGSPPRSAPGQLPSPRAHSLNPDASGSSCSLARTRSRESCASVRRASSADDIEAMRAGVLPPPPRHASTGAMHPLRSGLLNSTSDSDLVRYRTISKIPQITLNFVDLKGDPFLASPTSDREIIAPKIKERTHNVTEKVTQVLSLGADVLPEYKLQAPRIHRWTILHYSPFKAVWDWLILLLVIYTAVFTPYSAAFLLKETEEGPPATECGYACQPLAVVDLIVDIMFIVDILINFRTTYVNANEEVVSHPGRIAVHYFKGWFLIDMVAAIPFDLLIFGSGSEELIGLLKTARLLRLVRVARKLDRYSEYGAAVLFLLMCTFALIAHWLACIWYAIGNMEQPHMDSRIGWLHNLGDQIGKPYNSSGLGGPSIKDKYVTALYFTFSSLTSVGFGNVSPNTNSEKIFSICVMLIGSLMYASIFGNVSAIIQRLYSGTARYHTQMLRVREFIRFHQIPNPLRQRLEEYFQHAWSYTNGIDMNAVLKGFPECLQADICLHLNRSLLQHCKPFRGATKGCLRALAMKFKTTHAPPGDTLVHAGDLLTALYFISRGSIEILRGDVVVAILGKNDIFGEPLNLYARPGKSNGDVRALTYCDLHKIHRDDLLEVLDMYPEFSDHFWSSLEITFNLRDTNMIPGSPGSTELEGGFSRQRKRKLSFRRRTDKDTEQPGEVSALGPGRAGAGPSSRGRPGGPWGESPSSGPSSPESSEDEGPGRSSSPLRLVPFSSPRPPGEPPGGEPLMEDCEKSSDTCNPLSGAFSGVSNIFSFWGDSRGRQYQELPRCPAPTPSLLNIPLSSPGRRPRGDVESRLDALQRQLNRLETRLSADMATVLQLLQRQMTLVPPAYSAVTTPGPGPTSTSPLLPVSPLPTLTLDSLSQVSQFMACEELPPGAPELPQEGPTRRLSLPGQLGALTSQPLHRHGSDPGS

CCN(CC)C(=O)c1ccccc1S(=O)(=O)NCC(=O)Nc1ccc(O)cc1 [SRP-001, N,N-diethyl-2-[[2-(4-hydroxyanilino)-2-oxo-ethyl]sulfamoyl]benzamide]
T1/2, geometric mean ([1]; MAD 500 mg, Day 1): 3.06 h
T1/2, geometric mean ([1]; MAD 1,000 mg, Day 1): 4.05 h
T1/2, geometric mean ([1]; MAD 1,000 mg, Day 5): 9.77 h
T1/2, arithmetic mean ([1]; MAD cohorts): 5.57 h
PK parameters on Day 5 versus Day 1 ([1]; Phase 1 MAD cohort): demonstrated a decrease
half-life ([1]; human, blood, summary aspect, read-out: half-life in said subject): 4.9 to 9.8 h
hERG signal / blocker class ([2]; 0.1 μM to 100 μM): weak blocker of hERG current; also recorded: absent relevant signal
block of hERG current ([2]; 100 μM, highest concentration tested, physiologic temperatures): 21.4±3.9%
induction of numerical chromosomal aberrations, conclusion [3]: negative for the induction of numerical chromosomal aberrations
structural aberrations ([3]; Chinese hamster, 20 h, 80 μg/mL): 3.7%
dose with cytotoxicity ([3]; chromosome aberration assay, non-activated 4-h exposure): 405 µg/mL
doses with cytotoxicity ([3]; chromosome aberration assay): ≥ 70 µg/mL
doses with cytotoxicity ([3]; preliminary toxicity assay): ≥ 122 µg/mL
mortality after single doses [4]: did not result in any mortality
emesis [5]: Nearly all animals had emesis
amplification in peak plasma concentration ([5]; male, Beagle): 3-4 fold
tolerated dose ([5]; male, Beagle, 2 d): 900 mg/kg/day
